Values after ≈ are worked out from the molar mass of the structure shown.
Tests used:
Format in all cases: cell-based
MDA-MB-231 cancer cells = assay: Anti-proliferation assay of MDA-MB-231 cancer cells (MTT); conditions: for effect on proliferation of MDA-MB-231 cells (percentage of alive cancer cell): with increase of concentration, FIG. 7 (F1), FIG. 8 (E2.2)
Protocol: (§1) In this assay, the effect of E2.2 and F1 compounds as anti proliferation and E2.2 compound as apoptosis inducer against MDA-MB-231 cancer cells will be observed. MDA-MB-231 cells were cultured in supplemented medium cells, and then incubated at temperature 37° C., 5% CO2.
This assay was performed in 96-well plates. Each well contained certain cancer cell density. After incubation for 24 hours, medium was changed into serum free medium, after that it was added with E2.2 compound sample as a single agent in various concentrations, so was with F1 compound. Cells were then re-incubated and after that the number of alive cells after treatment was determined by cell death determination assay. Absorbance value was read in microplate reader. After the absorbance value was converted with standard curve, the number of alive and death cells can be obtained.
Percentage of the number of alive cells in each treatment can be counted by counting the number of alive cells at wells that received treatment divided with the number of alive cells at healthy control and multiplied with 100%. % The number of alive cells=B/A×100% Notes: A is the number of alive cells at healthy control, and B is the number of alive cells that received treatment. IC50 value is a number showing a sample concentration that causes death as much as 50% in a population. Such value is obtained using BioStat statistical program. b. DNA Fragmentation Analysis Method

MDA-MB-231 cells = assay: DNA fragmentation analysis (DNA Apoptosis Ladder Kit, gel electrophoresis); conditions: MDA-MB-231 cells, 50, 75, and 100 μg/mL; FIG. 9
Protocol: as §1
Apoptosis is an active process of cell death marked with DNA chromosome cleavage, chromatin condensation, and also DNA fragmentation. In this experiment, it was observed the effect of E2.2 compound addition toward the formation of DNA fragmentation as one of apoptosis indicators. Cells were cultured in the plates. After incubation for 24 hours, it was added with E2.2 compound in various concentrations. DNA fragmentation determination was performed using DNA Apoptosis Ladder Kit.

BCl2 mRNA expression = assay: BCl2 RT-PCR in MDA-MB-231 cells; conditions: various concentrations, serum free medium, FIGS. 10a, 10b
Protocol: (§2) BCl2 and Bax genes are genes acting in apoptosis process. To identify BCl2 and Bax mRNA expressions, RT-PCR (reverse-transcription PCR) was performed. MDA-MB-231 cancer cells were grown in plates and added with E2.2 compound samples as a single agent in various concentrations. Experiment condition was performed in serum free medium. RNA total was isolated from MDA-MB-231 cancer cells. RNA isolation products were quantified using spectrophotometer and visualized by agarose gel electrophoresis technique. The RNAs were then used in RT-PCR process using specific primers. RT-PCR process was performed in PCR machine with optimized condition.

Bax mRNA expression = assay: Bax RT-PCR in MDA-MB-231 cells; conditions: various concentrations, serum free medium, FIGS. 11a, 11b
Protocol: as §2

SMILES | IC50 value (MDA-MB-231 cancer cells; MDA-MB-231 cells, MTT result, serum free medium, BioStat statistical program) | effect on proliferation of MDA-MB-231 cells (percentage of alive cancer cell) (MDA-MB-231 cancer cells) | IC50 (MDA-MB-231 cancer cells; Homo sapiens, MDA-MB-231 cells, MTT result, serum free medium, BioStat statistical program) | formation of DNA fragments (apoptosis marker) (MDA-MB-231 cells) | BCl2 mRNA expression (BCl2 mRNA expression) | Bax mRNA level (Bax mRNA expression)
COc1cc(O)c(C(=O)c2ccc(O)cc2)c(O[C@@H]2O[C@H](CO)[C@@H](O)[C@H](O)[C@H]2O)c1 [F1, 4′,6-di-hydroxy-4-methoxybenzophenone-2-O-β-D-glycopyranoside] | 65.80 µg/mL (≈ 156 µM) | anti proliferation effect |  |  |  | 
COc1cc(O)c(C(=O)c2ccc(O)cc2)c(O)c1 [E2.2, 2,4′,6-trihydroxy-4-methoxybenzophenone] |  | anti proliferation effect | 36.9 µg/mL (≈ 142 µM) | apoptosis inducer effect | downregulation | upregulation

Reference: patent publication US8569382B2, “Isolated compounds from Phaleria macrocarpa as anti-cancer agents” (PT. Dexa Medica, priority 2008, dated 2013)
